Data on one compound can be found in patent US10285865B2, “Drug-releasing device usable in mucosal body cavities” (Princeton Trade & Technololgy, Inc., priority 2014, dated 2019).

In brackets after ≈: the same amount, converted by molar mass.

Holding throughout (assay type): cell-based
The subject of experiment [1] is Staphylococcus aureus LUX. The experiment is described as follows: microbe, parasite or virus in culture. From the text:
(§1) In an embodiment of the invention, the two forms of Ciprofloxacin can be combined in a single implant so as to achieve a desired the rate of delivery, the solubility limit of the drug in middle ear exudate or release of the drug. […]. The Minimum Inhibitory Concentration is the smallest concentration of a drug in water that will inhibit growth of a particular bacteria in solution.
(§2) The quantity Minimum Inhibitory Concentration (MIC) is the smallest concentration of a drug in water that will inhibit growth of a particular organism. It may be desirable for the administered concentration of a drug to be some multiple of this quantity. MIC for Ciprofloxacin is given here for several organisms typical of otitis media. For Pseudomonas aeruginosa, the MIC is 0.09 micrograms per milliliter. […] For Haemophilus influenza, the MIC is 0.06 micrograms per milliliter.

Experiment [2] deals with Staphylococcus aureus GFP. As to the kind of experiment: microbe, parasite or virus in culture.
Source text: as §1, §2

The subject of experiment [3] is Haemophilus influenza. As to the kind of experiment: Minimum Inhibitory Concentration (MIC) in water.
Source text: as §1, §2

The test system of experiment [4] is Pseudomonas aeruginosa. As to the kind of experiment: Minimum Inhibitory Concentration (MIC) in water.
Source text: as §1, §2

Experiment [5] deals with Streptococcus pneumonia. As to the kind of experiment: Minimum Inhibitory Concentration (MIC) in water. The following applies: Streptococcus pneumoniae.
Source text: as §1, §2

With `O=C(O)c1cn(C2CC2)c2cc(N3CCNCC3)c(F)cc2c1=O` [Ciprofloxacin], the MIC in experiment [1] worked out at 0.28 µg/mL (≈ 0.845 µM); in experiment [2], 0.28 µg/mL (≈ 0.845 µM); in experiment [3] it was 0.06 µg/mL (≈ 0.181 µM); in experiment [4], 0.09 µg/mL (≈ 0.272 µM); in experiment [5] it was 0.75 µg/mL (≈ 2.26 µM).
